The record followed here is patent publication US10377753B2, “Substituted 4-azaindoles and their use as GluN2B receptor modulators” (Janssen Pharmaceutica NV, priority 2015, dated 2019).

Structures can show the parent of a compound that is named as a salt.

Chain of cloned human NR1/NR2B ion channels (Q13224 27-1484, other chains not shown): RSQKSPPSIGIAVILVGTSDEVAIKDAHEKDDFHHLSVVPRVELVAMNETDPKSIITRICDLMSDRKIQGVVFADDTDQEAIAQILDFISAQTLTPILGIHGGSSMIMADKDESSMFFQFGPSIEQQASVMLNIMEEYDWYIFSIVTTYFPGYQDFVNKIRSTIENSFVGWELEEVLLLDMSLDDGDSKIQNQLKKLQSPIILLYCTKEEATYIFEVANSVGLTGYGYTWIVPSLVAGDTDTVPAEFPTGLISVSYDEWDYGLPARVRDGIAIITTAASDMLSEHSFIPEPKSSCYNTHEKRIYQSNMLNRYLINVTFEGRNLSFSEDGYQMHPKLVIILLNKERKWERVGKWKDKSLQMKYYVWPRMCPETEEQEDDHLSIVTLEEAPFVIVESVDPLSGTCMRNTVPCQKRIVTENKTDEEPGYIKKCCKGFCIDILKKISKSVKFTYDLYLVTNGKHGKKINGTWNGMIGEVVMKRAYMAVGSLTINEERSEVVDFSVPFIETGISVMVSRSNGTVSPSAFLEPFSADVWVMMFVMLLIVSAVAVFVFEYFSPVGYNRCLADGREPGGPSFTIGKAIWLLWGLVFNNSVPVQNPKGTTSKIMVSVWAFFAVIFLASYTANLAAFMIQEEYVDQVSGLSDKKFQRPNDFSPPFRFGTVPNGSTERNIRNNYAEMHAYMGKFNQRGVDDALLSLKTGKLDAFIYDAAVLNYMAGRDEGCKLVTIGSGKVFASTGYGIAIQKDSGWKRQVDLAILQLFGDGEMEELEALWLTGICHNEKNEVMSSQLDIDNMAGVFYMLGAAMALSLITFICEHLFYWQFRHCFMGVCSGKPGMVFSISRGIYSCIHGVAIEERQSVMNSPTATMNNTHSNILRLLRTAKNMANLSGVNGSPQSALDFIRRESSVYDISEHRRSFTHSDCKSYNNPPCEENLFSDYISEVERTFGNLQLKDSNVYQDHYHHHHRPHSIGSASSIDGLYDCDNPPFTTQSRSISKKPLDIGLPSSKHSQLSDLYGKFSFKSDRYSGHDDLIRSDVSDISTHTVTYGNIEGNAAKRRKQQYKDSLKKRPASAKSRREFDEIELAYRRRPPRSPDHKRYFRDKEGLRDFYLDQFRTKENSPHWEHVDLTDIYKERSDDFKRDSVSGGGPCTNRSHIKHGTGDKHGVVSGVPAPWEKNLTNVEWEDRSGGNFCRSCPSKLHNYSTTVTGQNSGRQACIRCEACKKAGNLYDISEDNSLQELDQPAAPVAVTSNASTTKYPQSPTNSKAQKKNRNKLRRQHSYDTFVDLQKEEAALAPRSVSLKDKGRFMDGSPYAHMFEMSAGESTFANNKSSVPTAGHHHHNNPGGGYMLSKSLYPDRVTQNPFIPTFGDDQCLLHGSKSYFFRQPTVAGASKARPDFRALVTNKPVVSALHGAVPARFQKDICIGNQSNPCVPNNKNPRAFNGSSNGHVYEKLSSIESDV

This assay deals with cloned human NR1/NR2B ion channels (Homo sapiens (Human), UniProt Q05586+Q13224). As to the kind of experiment: HNR2BC: effects of test articles on cloned human NR1/NR2B ion channels expressed in mammalian cells (FLIPR calcium flux). It counts as cell-based. The conditions noted are these: cloned human NR1/NR2B, Table 5. An outline of the steps:
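Compounds were added to dye-loaded cells for 5 min with fluorescence monitored for agonism, followed by co-agonists (glutamate ~EC80, glycine 10 μM saturating) for 5 min. Cells stably expressed inducible human NR1/NR2B, and the buffer was pH 7.4. The FLIPR Ca2+ flux signal was normalized against control wells.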
For orientation: A change in cytosolic calcium serves as a functional read-out for many receptors and channels.
As a reminder, the IC50 is the midpoint of a concentration-inhibition curve. As to `Cc1c(F)ccc(-c2cnc3ccn(CC(=O)C(C)C)c3c2)c1C` [Example 223, 1-[6-(4-Fluoro-2,3-dimethyl-phenyl)pyrrolo[3,2-b]pyridin-1-yl]-3-methyl-butan-2-one], the IC50 is 79.4 nM. The result for `CCc1cccc(-c2cnc3ccn(CC(=O)C(C)C)c3c2)c1` [Example 224, 1-[6-(3-Ethylphenyl)pyrrolo[3,2-b]pyridin-1-yl]-3-methyl-butan-2-one] reads 398 nM. Under `Cc1cccc(-c2cnc3ccn(CC(=O)C(C)C)c3c2)c1C` [Example 225, 1-[6-(2,3-Dimethylphenyl)pyrrolo[3,2-b]pyridin-1-yl]-3-methyl-butan-2-one] stands 79.4 nM; under `O=C(Cn1ccc2ncc(-c3ccc(F)cc3)cc21)c1ccccc1` [Example 226, 2-[6-(4-Fluorophenyl)pyrrolo[3,2-b]pyridin-1-yl]-1-phenyl-ethanone], 200 nM. The result for `O=C(Cn1ccc2ncc(-c3ccc(F)cc3)cc21)c1ccc(F)cc1` [Example 227, 1-(4-Fluorophenyl)-2-[6-(4-fluorophenyl)pyrrolo[3,2-b]pyridin-1-yl]ethanone] reads 794 nM; that for `CC(C)NC(=O)Cn1ccc2ncc(-c3ccc(F)cc3)cc21` [Example 229, 2-[6-(4-Fluorophenyl)pyrrolo[3,2-b]pyridin-1-yl]-N-isopropyl-acetamide], 501 nM. On to `CCCNC(=O)Cn1ccc2ncc(-c3ccc(F)cc3)cc21` [Example 230, 2-[6-(4-Fluorophenyl)pyrrolo[3,2-b]pyridin-1-yl]-N-propyl-acetamide], for which the IC50 was 5010 nM. Consider `CC1(NC(=O)Cn2ccc3ncc(-c4ccc(F)cc4)cc32)CC1` [Example 232, 2-[6-(4-Fluorophenyl)pyrrolo[3,2-b]pyridin-1-yl]-N-(1-methylcyclopropyl)acetamide], for which the IC50 is 10000 nM. Under `O=C(Cn1ccc2ncc(-c3ccc(F)cc3)cc21)NCCF` [Example 233, N-(2-Fluoroethyl)-2-[6-(4-fluorophenyl)pyrrolo[3,2-b]pyridin-1-yl]acetamide] stands 15800 nM; under `CC(C)CNC(=O)Cn1ccc2ncc(-c3ccc(F)cc3)cc21` [Example 234, 2-[6-(4-Fluorophenyl)pyrrolo[3,2-b]pyridin-1-yl]-N-isobutyl-acetamide], 2510 nM; under `Cc1cc(-c2cnc3ccn(Cc4cnn(C)c4)c3c2)ccc1F` [Example 236, 6-(4-Fluoro-3-methyl-phenyl)-1-[(1-methylpyrazol-4-yl)methyl]pyrrolo[3,2-b]pyridine], 200 nM. Under `O=C(Cn1ccc2ncc(-c3ccc(F)cc3)cc21)NCC1CC1` [Example 237, N-(Cyclopropylmethyl)-2-[6-(4-fluorophenyl)pyrrolo[3,2-b]pyridin-1-yl]acetamide] stands 2000 nM; under `Cc1cc(-c2cnc3ccn(Cc4cn(C)nn4)c3c2)ccc1F` [Example 238, 6-(4-Fluoro-3-methyl-phenyl)-1-[(1-methyltriazol-4-yl)methyl]pyrrolo[3,2-b]pyridine], 3160 nM; under `Cc1noc(Cn2cc(Cl)c3ncc(-c4ccc(F)c(C)c4)cc32)n1` [Example 239, 5-[[3-Chloro-6-(4-fluoro-3-methyl-phenyl)pyrrolo[3,2-b]pyridin-1-yl]methyl]-3-methyl-1,2,4-oxadiazole], 158 nM. The result for `Cc1cc(-c2cnc3c(Cl)cn(Cc4cnn(C)c4)c3c2)ccc1F` [Example 240, 3-Chloro-6-(4-fluoro-3-methyl-phenyl)-1-[(1-methylpyrazol-4-yl)methyl]pyrrolo[3,2-b]pyridine] reads 501 nM.

Regarding `Cc1cc(-c2cnc3c(Cl)cn(CC(=O)C4CCC4)c3c2)ccc1F` [Example 241, 2-[3-Chloro-6-(4-fluoro-3-methyl-phenyl)pyrrolo[3,2-b]pyridin-1-yl]-1-cyclobutyl-ethanone], the IC50 is 5010 nM.

For `Cc1cc(-c2cnc3ccn(CC(=O)C4CCC4)c3c2)ccc1F` [Example 242, 1-Cyclobutyl-2-[6-(4-fluoro-3-methyl-phenyl)pyrrolo[3,2-b]pyridin-1-yl]ethanone], the IC50 is 794 nM. The result for `O=C(Cn1cc(Cl)c2ncc(-c3cncc(C(F)(F)F)c3)cc21)N1CCC1` [Example 243, 1-(Azetidin-1-yl)-2-[3-chloro-6-[5-(trifluoromethyl)-3-pyridyl]pyrrolo[3,2-b]pyridin-1-yl]ethanone trifluoroacetate salt] reads 100 nM; that for `O=C(Cn1cc(Cl)c2ncc(-c3cncc(C(F)(F)F)c3)cc21)NC1CC1` [Example 244, 2-[3-Chloro-6-[5-(trifluoromethyl)-3-pyridyl]pyrrolo[3,2-b]pyridin-1-yl]-N-cyclopropyl-acetamide trifluoroacetate salt], 631 nM; that for `O=C(Cn1cc(Cl)c2ncc(-c3cccc(C(F)(F)F)n3)cc21)N1CCC1` [Example 245, 1-(Azetidin-1-yl)-2-[3-chloro-6-[6-(trifluoromethyl)-2-pyridyl]pyrrolo[3,2-b]pyridin-1-yl]ethanone], 398 nM. The result for `O=C(Cn1cc(Cl)c2ncc(-c3cccc(C(F)(F)F)n3)cc21)NC1CC1` [Example 246, 2-[3-Chloro-6-[6-(trifluoromethyl)-2-pyridyl]pyrrolo[3,2-b]pyridin-1-yl]-N-cyclopropyl-acetamide] reads 100 nM. In the case of `O=C(Cn1cc(Cl)c2ncc(-c3cccc(C(F)(F)F)n3)cc21)N1CC(F)C1` [Example 247, 2-[3-Chloro-6-[6-(trifluoromethyl)-2-pyridyl]pyrrolo[3,2-b]pyridin-1-yl]-1-(3-fluoroazetidin-1-yl)ethanone], the IC50 was 316 nM. The result for `O=C(Cn1ccc2ncc(-c3cc(F)c(F)c(F)c3)cc21)NC1CC1` [Example 248, N-Cyclopropyl-2-[6-(3,4,5-trifluorophenyl)pyrrolo[3,2-b]pyridin-1-yl]acetamide] reads 63.1 nM; that for `O=C(Cn1ccc2ncc(-c3ccc(F)c(F)c3F)cc21)NC1CC1` [Example 249, N-Cyclopropyl-2-[6-(2,3,4-trifluorophenyl)pyrrolo[3,2-b]pyridin-1-yl]acetamide], 79.4 nM. In the case of `O=C(Cn1ccc2ncc(-c3cccc(C(F)F)c3)cc21)NC1CC1` [Example 250, N-Cyclopropyl-2-[6-[3-(difluoromethyl)phenyl]pyrrolo[3,2-b]pyridin-1-yl]acetamide], the IC50 was 251 nM. The result for `O=C(Cn1ccc2ncc(-c3ccc(F)cc3)cc21)NCc1ccccc1` [Example 251, N-Benzyl-2-[6-(4-fluorophenyl)pyrrolo[3,2-b]pyridin-1-yl]acetamide] reads 50.1 nM. Under `O=C(Cn1ccc2ncc(-c3ccc(F)cc3)cc21)NCCO` [Example 253, 2-[6-(4-Fluorophenyl)pyrrolo[3,2-b]pyridin-1-yl]-N-(2-hydroxyethyl)acetamide] stands 79.4 nM. Under `COCCNC(=O)Cn1ccc2ncc(-c3ccc(F)cc3)cc21` [Example 254, 2-[6-(4-Fluorophenyl)pyrrolo[3,2-b]pyridin-1-yl]-N-(2-methoxyethyl)acetamide] stands 1260 nM.

`O=C(Cn1ccc2ncc(-c3cccc(C(F)(F)F)c3F)cc21)N1CC(F)(F)C1` [Example 255, 1-(3,3-Difluoroazetidin-1-yl)-2-[6-[2-fluoro-3-(trifluoromethyl)phenyl]pyrrolo[3,2-b]pyridin-1-yl]ethanone trifluoroacetate salt]: the IC50 was 3980 nM. In the case of `O=C(Cn1ccc2ncc(-c3cccc(F)c3)cc21)N1CC(F)(F)C1` [Example 256, 1-(3,3-Difluoroazetidin-1-yl)-2-[6-(3-fluorophenyl)pyrrolo[3,2-b]pyridin-1-yl]ethanone trifluoroacetate salt], the IC50 was 79.4 nM. The result for `O=C(Cn1ccc2ncc(-c3ccccc3)cc21)N1CC(F)(F)C1` [Example 257, 1-(3,3-Difluoroazetidin-1-yl)-2-(6-phenylpyrrolo[3,2-b]pyridin-1-yl)ethanone trifluoroacetate salt] reads 126 nM.

As to `CCc1cccc(-c2cnc3ccn(CC(=O)N4CC(F)(F)C4)c3c2)c1` [Example 258, 1-(3,3-Difluoroazetidin-1-yl)-2-[6-(3-ethylphenyl)pyrrolo[3,2-b]pyridin-1-yl]ethanone trifluoroacetate salt], the IC50 is 200 nM.

Turning to `Cc1cc(-c2cnc3ccn(CC(=O)N4CC(F)(F)C4)c3c2)ccc1F` [Example 259, 1-(3,3-Difluoroazetidin-1-yl)-2-[6-(4-fluoro-3-methyl-phenyl)pyrrolo[3,2-b]pyridin-1-yl]ethanone trifluoroacetate salt], the half-maximal inhibitory concentration (IC50) is 31.6 nM. On to `O=C(Cn1ccc2ncc(-c3cccc(C(F)(F)F)c3)cc21)N1CC(F)(F)C1` [Example 260, 1-(3,3-Difluoroazetidin-1-yl)-2-[6-[3-(trifluoromethyl)phenyl]pyrrolo[3,2-b]pyridin-1-yl]ethanone trifluoroacetate salt], for which the IC50 was 39.8 nM. The result for `Cc1cc(F)ccc1-c1cnc2ccn(CC(=O)N3CC(F)(F)C3)c2c1` [Example 261, 1-(3,3-Difluoroazetidin-1-yl)-2-[6-(4-fluoro-2-methyl-phenyl)pyrrolo[3,2-b]pyridin-1-yl]ethanone trifluoroacetate salt] reads 50.1 nM. The result for `O=C(Cn1ccc2ncc(-c3ccc(F)c(C(F)(F)F)c3)cc21)N1CC(F)C1` [Example 262, 1-(3-Fluoroazetidin-1-yl)-2-[6-[4-fluoro-3-(trifluoromethyl)phenyl]pyrrolo[3,2-b]pyridin-1-yl]ethanone trifluoroacetate salt] reads 100 nM. Regarding `O=C(Cn1ccc2ncc(-c3cccc(F)c3)cc21)N1CC(F)C1` [Example 263, 1-(3-Fluoroazetidin-1-yl)-2-[6-(3-fluorophenyl)pyrrolo[3,2-b]pyridin-1-yl]ethanone trifluoroacetate salt], the IC50 was 158 nM.

For the compound `Cc1cc(F)ccc1-c1cnc2ccn(CC(=O)N3CC(F)C3)c2c1` [Example 264, 1-(3-Fluoroazetidin-1-yl)-2-[6-(4-fluoro-2-methyl-phenyl)pyrrolo[3,2-b]pyridin-1-yl]ethanone trifluoroacetate salt], the IC50 was 63.1 nM.
